# According to US20020002171A1, “Materials and methods for killing nematodes and nematode eggs” (priority 2000, published 2002):
# System: Caenorhabditis elegans
# Experiment: C. elegans L1 nematicidal dose response in 96-well plates, 5 day visual score (Example 2; same procedure for Example 7, Table 3)
# Assay type: in vivo
# Design: key to 5 Day Visual Score V1 / 5 Day Visual Score V2 / 5 Day Visual Score V3 / 5 Day Visual Score V4 / 5 Day Visual Score V6 / 5 Day Visual Score V5 / Initial HTS Run Visual Score / Follow-up HTS Run Visual Score: Dead: only stiff L1s (no movement); Dead (L4): worms are dead, but at a later larval stage; majority of worms are L1 (based on size) worms move when plate is tapped; majority of worms are L2 (based on size); majority of worms are L3 (based on size); majority of worms are L4 (based on size); AD: majority of worms are adult; #AD: 5 adult worms or less; B!: sterile (0-25 progeny); B: low broodsize (25-100 progeny); ˜B: moderate broodsize (100-250 progeny); <: reduced broodsize (250-500 progeny); OK: no effect (˜1000+ progeny)
# Settings: Follow-up HTS run
# Protocol: Caenorhabditis elegans adults were grown on Nematode Growth Medium (NGM) until they produced eggs, then the adults were removed.
# The eggs were allowed to hatch, and the L1 larvae collected. See The Nematode Caenorhabditis elegans (1988) Cold Spring Harbor Laboratory Press. Using a Matrix Programmable Pipette, the L1s were distributed into 96-well tissue culture plates, 20 L1 in 50 μl NGM per well. Antibiotic/Antimyoticwas added to each well, and 1% by weight E. coli strain HB101. The subject anthelmintic compounds were stored at 5 mM in 100% DMSO. 0.7 μl of compounds 1-31 were added to the left-most column of wells to yield a final concentration of 70 μM in 1.4% DMSO, with 1.4% DMSO only as the control. The compounds were then subjected to 5 more 3-fold dilutions from left to right to yield 6 column concentrations of 70 μM, 23.3 μM, 7.8 μM, 2.6 μM, 0.9 μM, and 0.3 μM. Plates were stored in air-tight Rubbermaid plastic boxes at 20° C. The nematodes had cleared all control wells by day 4, and nematode viability was scored by visual examination under a 100× dissecting microsope on day 5. A visual viability scoring system was used as follows:
# Column V1 has a compound concentration of 70 μM with sequential 3-fold dilutions reported in columns V2, V3, V4, V5, and V6, respectively, such that the V6 concentration was 0.3 μM.
# The nematicidal activity of anthelmintic Compositions 48-168 were determined in accordance with the procedure outlined in Example 2.
SMILES,Follow-up HTS Run % Run [%],Follow-up HTS Run Visual Score,Follow-up HTS Run mOD [mOD]
CCCCN(Cc1ccccc1)c1nc(N2CCCC(C(=O)N(CC)CC)C2)ns1 (stereo not shown) [compound 239],132,B (low broodsize (25-100 progeny)),212
CCN(Cc1ccccc1)c1nc(NCc2ccc(C(F)(F)F)cc2)ns1 [compound 310],116,–,187
Cc1cccc(C)c1N1CCN(c2nc(NCc3ccc(C(F)(F)F)cc3)ns2)CC1 [compound 304],107,–,172
C=CCN(CC=C)c1nc(NCc2ccccc2)ns1 [compound 327],106,–,171
CN(Cc1ccccc1)c1nc(NCc2ccccc2)ns1 [compound 328],121,–,195
Cc1cccc(C)c1N1CCN(c2nsc(N(C)CCc3ccccc3)n2)CC1 [compound 234],63,2AD/B,102
CCN(Cc1ccccc1)c1nc(NCCc2ccc(F)cc2)ns1 [compound 241],88,B (low broodsize (25-100 progeny)),141
CCOC(=O)CCN(Cc1ccccc1)c1nc(NCc2ccc(C(F)(F)F)cc2)ns1 [compound 313],106,–,170

# Same assay, conditions: Initial HTS run
SMILES,Initial HTS Run % Run [%],Initial HTS Run Visual Score,Initial HTS Run mOD [mOD]
CCCCN(Cc1ccccc1)c1nc(N2CCCC(C(=O)N(CC)CC)C2)ns1 (stereo not shown) [compound 239],134,L4/AD/B!,147
CCN(Cc1ccccc1)c1nc(NCc2ccc(C(F)(F)F)cc2)ns1 [compound 310],102,–,112
Cc1cccc(C)c1N1CCN(c2nc(NCc3ccc(C(F)(F)F)cc3)ns2)CC1 [compound 304],96,L4/AD/B!,106
C=CCN(CC=C)c1nc(NCc2ccccc2)ns1 [compound 327],105,L2/L3(Dead L3),115
CN(Cc1ccccc1)c1nc(NCc2ccccc2)ns1 [compound 328],120,–,132
Cc1cccc(C)c1N1CCN(c2nsc(N(C)CCc3ccccc3)n2)CC1 [compound 234],120,3AD/B,132
CCN(Cc1ccccc1)c1nc(NCCc2ccc(F)cc2)ns1 [compound 241],114,–,125
CCOC(=O)CCN(Cc1ccccc1)c1nc(NCc2ccc(C(F)(F)F)cc2)ns1 [compound 313],97,L2 - (Dead L3),107

# Same assay, conditions: dose response, dilution V1, 5 day
row,SMILES,5 Day Visual Score V1
1,CCN(Cc1ccccc1)c1nc(NCc2ccc(C(F)(F)F)cc2)ns1 [compound 310],Dead
2,C=CCN(CC=C)c1nc(NCc2ccccc2)ns1 [compound 327],Dead
3,CN(Cc1ccccc1)c1nc(NCc2ccccc2)ns1 [compound 328],L1
4,CCOC(=O)CCN(Cc1ccccc1)c1nc(NCc2ccc(C(F)(F)F)cc2)ns1 [compound 313],Dead(L2/L3)

# Same assay, conditions: dose response, dilution V1, day 5
row,SMILES,5 Day Visual Score V1
1,CCCCN(Cc1ccccc1)c1nc(N2CCCC(C(=O)N(CC)CC)C2)ns1 (stereo not shown) [compound 239],L2
2,Cc1cccc(C)c1N1CCN(c2nc(NCc3ccc(C(F)(F)F)cc3)ns2)CC1 [compound 304],L1
3,Cc1cccc(C)c1N1CCN(c2nsc(N(C)CCc3ccccc3)n2)CC1 [compound 234],Dead

# Same assay, conditions: dose response, dilution V2, 5 day
row,SMILES,5 Day Visual Score V2
1,CCN(Cc1ccccc1)c1nc(NCc2ccc(C(F)(F)F)cc2)ns1 [compound 310],B (low broodsize (25-100 progeny))
2,C=CCN(CC=C)c1nc(NCc2ccccc2)ns1 [compound 327],B (low broodsize (25-100 progeny))
3,CN(Cc1ccccc1)c1nc(NCc2ccccc2)ns1 [compound 328],L1
4,CCOC(=O)CCN(Cc1ccccc1)c1nc(NCc2ccc(C(F)(F)F)cc2)ns1 [compound 313],Dead(L3)

# Same assay, conditions: dose response, dilution V2, day 5
row,SMILES,5 Day Visual Score V2
1,CCCCN(Cc1ccccc1)c1nc(N2CCCC(C(=O)N(CC)CC)C2)ns1 (stereo not shown) [compound 239],B (low broodsize (25-100 progeny))
2,Cc1cccc(C)c1N1CCN(c2nc(NCc3ccc(C(F)(F)F)cc3)ns2)CC1 [compound 304],OK (no effect (˜1000+ progeny))
3,CCN(Cc1ccccc1)c1nc(NCCc2ccc(F)cc2)ns1 [compound 241],˜B (moderate broodsize (100-250 progeny))

# Same assay, conditions: dose response, dilution V3, 5 day
row,SMILES,5 Day Visual Score V3
1,CCN(Cc1ccccc1)c1nc(NCc2ccc(C(F)(F)F)cc2)ns1 [compound 310],˜B (moderate broodsize (100-250 progeny))
2,C=CCN(CC=C)c1nc(NCc2ccccc2)ns1 [compound 327],˜B (moderate broodsize (100-250 progeny))

# Same assay, conditions: dose response, dilution V3, day 5
row,SMILES,5 Day Visual Score V3
1,CCCCN(Cc1ccccc1)c1nc(N2CCCC(C(=O)N(CC)CC)C2)ns1 (stereo not shown) [compound 239],OK (no effect (˜1000+ progeny))
2,Cc1cccc(C)c1N1CCN(c2nc(NCc3ccc(C(F)(F)F)cc3)ns2)CC1 [compound 304],OK (no effect (˜1000+ progeny))
3,Cc1cccc(C)c1N1CCN(c2nsc(N(C)CCc3ccccc3)n2)CC1 [compound 234],˜B (moderate broodsize (100-250 progeny))
4,CCN(Cc1ccccc1)c1nc(NCCc2ccc(F)cc2)ns1 [compound 241],OK (no effect (˜1000+ progeny))

# Same assay, conditions: dose response, dilution V4, 5 day
row,SMILES,5 Day Visual Score V4
1,CCN(Cc1ccccc1)c1nc(NCc2ccc(C(F)(F)F)cc2)ns1 [compound 310],#AD/˜B
2,C=CCN(CC=C)c1nc(NCc2ccccc2)ns1 [compound 327],OK (no effect (˜1000+ progeny))
3,CCOC(=O)CCN(Cc1ccccc1)c1nc(NCc2ccc(C(F)(F)F)cc2)ns1 [compound 313],< (reduced broodsize (250-500 progeny))

# Same assay, conditions: dose response, dilution V4, day 5
row,SMILES,5 Day Visual Score V4
1,CCCCN(Cc1ccccc1)c1nc(N2CCCC(C(=O)N(CC)CC)C2)ns1 (stereo not shown) [compound 239],OK (no effect (˜1000+ progeny))
2,Cc1cccc(C)c1N1CCN(c2nc(NCc3ccc(C(F)(F)F)cc3)ns2)CC1 [compound 304],OK (no effect (˜1000+ progeny))
3,Cc1cccc(C)c1N1CCN(c2nsc(N(C)CCc3ccccc3)n2)CC1 [compound 234],< (reduced broodsize (250-500 progeny))
4,CCN(Cc1ccccc1)c1nc(NCCc2ccc(F)cc2)ns1 [compound 241],OK (no effect (˜1000+ progeny))

# Same assay, conditions: dose response, dilution V5, 5 day
row,SMILES,5 Day Visual Score V5
1,CCN(Cc1ccccc1)c1nc(NCc2ccc(C(F)(F)F)cc2)ns1 [compound 310],OK (no effect (˜1000+ progeny))
2,C=CCN(CC=C)c1nc(NCc2ccccc2)ns1 [compound 327],OK (no effect (˜1000+ progeny))
3,CN(Cc1ccccc1)c1nc(NCc2ccccc2)ns1 [compound 328],< (reduced broodsize (250-500 progeny))
4,CCOC(=O)CCN(Cc1ccccc1)c1nc(NCc2ccc(C(F)(F)F)cc2)ns1 [compound 313],OK (no effect (˜1000+ progeny))

# Same assay, conditions: dose response, dilution V5, day 5
row,SMILES,5 Day Visual Score V5
1,CCCCN(Cc1ccccc1)c1nc(N2CCCC(C(=O)N(CC)CC)C2)ns1 (stereo not shown) [compound 239],OK (no effect (˜1000+ progeny))
2,Cc1cccc(C)c1N1CCN(c2nc(NCc3ccc(C(F)(F)F)cc3)ns2)CC1 [compound 304],OK (no effect (˜1000+ progeny))
3,Cc1cccc(C)c1N1CCN(c2nsc(N(C)CCc3ccccc3)n2)CC1 [compound 234],OK (no effect (˜1000+ progeny))
4,CCN(Cc1ccccc1)c1nc(NCCc2ccc(F)cc2)ns1 [compound 241],OK (no effect (˜1000+ progeny))

# Same assay, conditions: dose response, dilution V6, 5 day
row,SMILES,5 Day Visual Score V6
1,CCN(Cc1ccccc1)c1nc(NCc2ccc(C(F)(F)F)cc2)ns1 [compound 310],OK (no effect (˜1000+ progeny))
2,C=CCN(CC=C)c1nc(NCc2ccccc2)ns1 [compound 327],OK (no effect (˜1000+ progeny))
3,CCOC(=O)CCN(Cc1ccccc1)c1nc(NCc2ccc(C(F)(F)F)cc2)ns1 [compound 313],OK (no effect (˜1000+ progeny))

# Same assay, conditions: dose response, dilution V6, day 5
row,SMILES,5 Day Visual Score V6
1,CCCCN(Cc1ccccc1)c1nc(N2CCCC(C(=O)N(CC)CC)C2)ns1 (stereo not shown) [compound 239],OK (no effect (˜1000+ progeny))
2,Cc1cccc(C)c1N1CCN(c2nc(NCc3ccc(C(F)(F)F)cc3)ns2)CC1 [compound 304],< (reduced broodsize (250-500 progeny))
3,Cc1cccc(C)c1N1CCN(c2nsc(N(C)CCc3ccccc3)n2)CC1 [compound 234],OK (no effect (˜1000+ progeny))
4,CCN(Cc1ccccc1)c1nc(NCCc2ccc(F)cc2)ns1 [compound 241],OK (no effect (˜1000+ progeny))
